Common to all, as to experiment: NCI anticancer screen, dose series, 48 h
Assay [1] has as its system KM12.
The subject of assay [2] is TK-10.
The test system of assay [3] is RPMI-8226.
The subject of assay [4] is HOP-62.
Assay [5] concerns NCI-H226.
Assay [6] deals with HCT-15.
Assay [7] relates to UACC-62.
The subject of assay [8] is SK-MEL-5.
The subject of assay [9] is MDA-MB-231.
In assay [10] the test system is BT-549.
Assay [11] relates to ACHN.
The subject of assay [12] is RXF 393.
The test system of assay [13] is NCI-H522.
Assay [14] deals with T47D.
The subject of assay [15] is SK-MEL-28.
For assay [16], the system named is HL-60.
The subject of assay [17] is SNB-19.
Assay [18] deals with OVCAR-4.
Assay [19] deals with OVCAR-3.
The test system of assay [20] is CAKI-1.

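96-well plates; 48 h exposure; 5 concentrations. Endpoints by linear interpolation between flanking doses. Not reached: highest tested concentration assigned. GI50: concentration for 50% inhibition of growth.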 The source made the active and inactive calls. Cut-off read from the data, not from the text of the source: active = GI50 up to about 1.1 µM and inactive = higher. Where only a bound is given, the exact number is not on record here.

On to `CC1(C)C(=O)/C=C\C(=O)C(C)(C)C(=O)/C=C\C(=O)C(C)(C)C(=O)/C=C\C(=O)C(C)(C)C(=O)/C=C\C1=O`, for which the GI50 in assay [1] is 40 µM (inactive); in assay [2] it was > 55.2 µM (inactive); in assay [3], 4.97 µM (inactive); in [4] it was > 100 µM (inactive); in [5], > 63 µM (inactive); in assay [6], 20.4 µM. Besides, the GI50 in [7] was 21.9 µM (inactive); in assay [8], 22.6 µM (inactive); in assay [9], 26.2 µM (inactive); in [10], > 10 µM (inactive); in [11], 26.8 µM (inactive); in assay [12], 17.9 µM (inactive). Besides, the GI50 was 8.41 µM (inactive) in [13]; 30.8 µM (inactive) in [14]; 26.5 µM (inactive) in assay [15]; 3 µM (inactive) in assay [16]; 52.5 µM (inactive) in [17]; 30.3 µM (inactive) in [18]. The GI50 in assay [19] is 23.8 µM (inactive); in assay [20], 12.6 µM (inactive).
Regarding `CCC(CC)(CO)CNc1cc(Cl)nc(N)n1`, the GI50 was > 100 µM (inactive) in assay [1]; > 100 µM (inactive) in assay [2]; 92.9 µM (inactive) in assay [3]; > 100 µM (inactive) in assay [4]; 77.1 µM (inactive) in assay [5]; over 100 µM in assay [6]. Besides, the GI50 in assay [7] was > 100 µM (inactive); in assay [8] it was 60.7 µM (inactive); in assay [9], > 100 µM (inactive); in [10], > 100 µM (inactive); in assay [11], > 100 µM (inactive); in assay [12], 67.1 µM (inactive). The GI50 in [13] is > 100 µM (inactive); in assay [14] it was 45.6 µM (inactive); in assay [15], > 100 µM (inactive); in assay [16], > 100 µM (inactive); in assay [18], 87.9 µM (inactive); in assay [19] it was > 100 µM (inactive). In [20], the GI50 was > 100 µM (inactive).
As for `COc1cc(CNC(=O)CCCCCCCCCCSC#N)ccc1O`, the GI50 is 5.83 µM (inactive) in assay [1]; 20.5 µM (inactive) in assay [2]; 14.6 µM (inactive) in assay [3]; 18.1 µM (inactive) in assay [5]; 6.93 µM in [6]; 5.41 µM (inactive) in assay [7]. Moreover, the GI50 in [8] was 6.22 µM (inactive); in assay [9], 25.7 µM (inactive); in [10] it was 22.9 µM (inactive); in assay [11], > 10 µM (inactive); in assay [12], 10.2 µM (inactive); in assay [13] it was 12.3 µM (inactive). Besides, the GI50 in [14] was 8.26 µM (inactive); in assay [15], 7.66 µM (inactive); in assay [16], 5.69 µM (inactive); in assay [17], 19.7 µM (inactive); in assay [18] it was 25 µM (inactive); in assay [19], 13.1 µM (inactive). Also, in assay [20], the GI50 is 18.2 µM (inactive).
On to `C/C=C/COc1cc(NC(=S)c2ccoc2C)ccc1OC`, for which the GI50 in assay [1] is > 100 µM (inactive); in assay [2], 97.1 µM (inactive); in [3], 23 µM (inactive); in assay [4], 34.7 µM (inactive); in assay [5], > 100 µM (inactive); in [6], over 100 µM. For the same compound, the GI50 in assay [7] is > 100 µM (inactive); in [8], 48.9 µM (inactive); in assay [9] it was 29.5 µM (inactive); in [10], > 100 µM (inactive); in assay [12] it was > 100 µM (inactive); in [13] it was 66.1 µM (inactive). For the same compound, the GI50 in assay [14] is 43.3 µM (inactive); in assay [15], > 100 µM (inactive); in [16], 60.3 µM (inactive); in assay [17], 26.7 µM (inactive); in assay [18] it was 23 µM (inactive); in [19], 50.2 µM (inactive). The GI50 in [20] was 25.6 µM (inactive).
With `C=C1CCC2CC1[C@@H](C(=O)c1c[nH]c3ccccc13)NC2(C)C` (stereo partly drawn), the GI50 in assay [1] was > 37.5 µM (inactive); in [2] it was > 37.5 µM (inactive); in [3], > 37.5 µM (inactive); in assay [4], > 37.5 µM (inactive); in assay [5], > 37.5 µM (inactive); in [6], over 37.5 µM. Moreover, the GI50 in assay [7] was 18.7 µM (inactive); in assay [8], > 37.5 µM (inactive); in [9], > 37.5 µM (inactive); in assay [10], > 37.5 µM (inactive); in assay [11] it was > 37.5 µM (inactive); in assay [12], > 37.5 µM (inactive). Moreover, the GI50 is > 37.5 µM (inactive) in assay [13]; 30.6 µM (inactive) in [14]; > 37.5 µM (inactive) in assay [15]; 34.8 µM (inactive) in assay [16]; > 37.5 µM (inactive) in [18]; > 37.5 µM (inactive) in [19]. The GI50 in [20] was 8.51 µM (inactive).
In the case of `Cc1ccccc1OC(C)C(=O)NN1C(=O)CC(=O)N(c2ccccc2)C1=S` (stereo not drawn), the GI50 was 75.5 µM (inactive) in assay [1]; 63 µM (inactive) in assay [2]; 43.3 µM (inactive) in [3]; 69.2 µM (inactive) in assay [4]; 41.9 µM (inactive) in assay [5]; 51.3 µM in [6]. Moreover, the GI50 in assay [7] was 54.1 µM (inactive); in assay [8], 60.3 µM (inactive); in assay [9] it was > 100 µM (inactive); in assay [10], > 100 µM (inactive); in assay [11], 53.8 µM (inactive); in [12], 61.4 µM (inactive). Also, the GI50 is 77.4 µM (inactive) in assay [13]; 35.3 µM (inactive) in [14]; > 100 µM (inactive) in assay [15]; 10.4 µM (inactive) in assay [16]; 24 µM (inactive) in [17]; > 100 µM (inactive) in [18]. Moreover, the GI50 in [19] is 53.2 µM (inactive); in [20], > 100 µM (inactive).
For the compound `Cc1ccc(/C=C2\N=C(N3CCCC(CO)C3)NC2=O)cc1` (stereo not drawn), the GI50 was > 100 µM (inactive) in [1]; > 100 µM (inactive) in assay [2]; > 100 µM (inactive) in [3]; > 100 µM (inactive) in assay [4]; > 100 µM (inactive) in assay [5]; over 100 µM in [6]. Further, the GI50 in [7], in assay [8], in assay [9], in [10], in [11] and in assay [12] was > 100 µM (inactive) in each case. Moreover, the GI50 in [13], in assay [14], in assay [15], in assay [16], in [17] and in [18] was > 100 µM (inactive) each time. The GI50 in assay [19] and in assay [20] was > 100 µM (inactive) in each case.
Regarding `O=C(N/N=C/c1ccc([N+](=O)[O-])o1)c1ccc(C(=O)N/N=C/c2ccc([N+](=O)[O-])o2)cc1`, the GI50 in [1] is 28.5 µM (inactive); in assay [3] it was 2.55 µM (inactive); in assay [4] it was 47.8 µM (inactive); in [5] it was > 100 µM (inactive); in [6], 29.8 µM; in assay [7], 13.8 µM (inactive). Moreover, the GI50 in assay [8] is 22.6 µM (inactive); in [9] it was > 100 µM (inactive); in [10], > 100 µM (inactive); in assay [11], 10.2 µM (inactive); in assay [12], 36.6 µM (inactive); in assay [13], 48.3 µM (inactive). For the same compound, the GI50 in assay [14] is 41.3 µM (inactive); in [15], 13.2 µM (inactive); in [16], 21.7 µM (inactive); in assay [17], 51.4 µM (inactive); in assay [18] it was 45 µM (inactive); in assay [19], 26.1 µM (inactive). In addition, the GI50 in [20] was 35.4 µM (inactive).
As for `Oc1[nH]c(Nc2cccc(Cl)c2)nc2ncnc1-2`, the GI50 in assay [1] was > 100 µM (inactive); in [2], > 100 µM (inactive); in assay [3] it was > 100 µM (inactive); in assay [4] it was 28.1 µM (inactive); in [5], > 100 µM (inactive); in assay [6] it was over 100 µM. For the same compound, the GI50 in assay [7] was 63.7 µM (inactive); in [8], > 100 µM (inactive); in assay [9] it was 30.8 µM (inactive); in [10], > 100 µM (inactive); in [11], > 100 µM (inactive); in assay [12], > 100 µM (inactive). The GI50 in [13] was > 100 µM (inactive); in [14] it was 44.9 µM (inactive); in assay [16], 79.8 µM (inactive); in assay [17], > 100 µM (inactive); in [18], > 100 µM (inactive); in [19] it was 48.4 µM (inactive). The GI50 in assay [20] was > 100 µM (inactive).
For `Cc1cc(O)c2c(c1O)C(=O)c1c(O)ccc(O)c1C2=O` [Cynodontin], the GI50 in assay [1] is > 100 µM (inactive); in assay [2], > 100 µM (inactive); in assay [3], > 100 µM (inactive); in [4] it was > 100 µM (inactive); in assay [5], > 100 µM (inactive); in assay [6], over 100 µM. The GI50 in assay [7], in assay [8], in assay [9], in [10], in assay [11] and in assay [12] was > 100 µM (inactive) in each case. Further, the GI50 in [13], in assay [14], in [16], in assay [17], in assay [18] and in assay [19] was > 100 µM (inactive) each time. In addition, the GI50 in [20] was > 100 µM (inactive).

The values above are taken from ChEMBL document CHEMBL1201862, “PubChem BioAssay data set” (2004).
